For 2 compounds, Drug metabolism and S50 results are on record in ChEMBL document CHEMBL3526019, “Novel cytochrome P450-mediated ring opening of the 1,3,4-oxadiazole in setileuton, a 5-lipoxygenase inhibitor” (Drug Metab Dispos, 2011).

For data set [1], the system named is Liver microsome. The data set can be described thus: Drug metabolism in NADPH fortified rat liver microsomes assessed as N-((4-(4-fluorophenyl)-2-oxochroman-7-yl)methyl)-2-((S)-2-hydroxy-2-(trifluoromethyl)butanoyl)hydrazinecarboxamide level. It counts as ADME. (Liver microsomes are vesicles of endoplasmic reticulum, rich in cytochrome P450 enzymes.)
In data set [2] the target is T1, Cytochrome P450 1A2 (Rattus norvegicus, UniProt P04799).
T1 sequence (P04799 whole entry): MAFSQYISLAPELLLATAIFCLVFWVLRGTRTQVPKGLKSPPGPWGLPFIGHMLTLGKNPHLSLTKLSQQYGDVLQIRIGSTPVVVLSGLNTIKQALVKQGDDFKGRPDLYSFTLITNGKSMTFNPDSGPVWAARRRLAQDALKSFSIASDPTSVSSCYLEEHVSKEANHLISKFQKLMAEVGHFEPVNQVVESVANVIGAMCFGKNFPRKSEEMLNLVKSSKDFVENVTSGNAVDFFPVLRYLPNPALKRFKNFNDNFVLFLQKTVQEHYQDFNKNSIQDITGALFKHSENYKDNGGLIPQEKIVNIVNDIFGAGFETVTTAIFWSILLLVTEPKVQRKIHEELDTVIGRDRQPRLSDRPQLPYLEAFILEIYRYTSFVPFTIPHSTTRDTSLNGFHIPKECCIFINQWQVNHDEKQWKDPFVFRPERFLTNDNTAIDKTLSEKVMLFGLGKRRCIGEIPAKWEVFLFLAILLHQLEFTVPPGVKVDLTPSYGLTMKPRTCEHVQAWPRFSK
The data set can be described thus: Activity of rat recombinant CYP1A2 expressed in baculovirus-infected insect cells assessed as enzyme-mediated N-((4-(4-fluorophenyl)-2-oxochroman-7-yl)methyl)-2-((S)-2-hydroxy-2-(trifluoromethyl)butanoyl)hydrazinecarboxamide formation preincubated for 3 mins by Michaelis-Menten equation in presence of NADPH for 10 mins. The class given is ADME.

In data set [3] the target is T2, Cytochrome P450 3A1 (Rattus norvegicus, UniProt P04800).
T2 sequence (P04800 whole entry): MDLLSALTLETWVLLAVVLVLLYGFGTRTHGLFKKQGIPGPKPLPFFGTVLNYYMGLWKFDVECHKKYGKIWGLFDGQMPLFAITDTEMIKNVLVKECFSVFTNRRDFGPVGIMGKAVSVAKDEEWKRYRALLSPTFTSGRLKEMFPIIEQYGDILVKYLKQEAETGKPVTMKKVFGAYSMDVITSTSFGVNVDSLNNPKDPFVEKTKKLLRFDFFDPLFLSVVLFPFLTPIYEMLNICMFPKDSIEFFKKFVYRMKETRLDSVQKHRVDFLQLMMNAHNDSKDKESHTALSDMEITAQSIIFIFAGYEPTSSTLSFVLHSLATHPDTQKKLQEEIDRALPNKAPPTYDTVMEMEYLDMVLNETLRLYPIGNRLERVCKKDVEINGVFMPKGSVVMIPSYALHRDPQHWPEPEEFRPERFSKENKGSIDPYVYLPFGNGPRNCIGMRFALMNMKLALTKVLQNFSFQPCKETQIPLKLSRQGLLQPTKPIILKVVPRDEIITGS
The data set can be described thus: Activity of rat recombinant CYP3A1 expressed in baculovirus-infected insect cells assessed as enzyme-mediated N-((4-(4-fluorophenyl)-2-oxochroman-7-yl)methyl)-2-((S)-2-hydroxy-2-(trifluoromethyl)butanoyl)hydrazinecarboxamide formation preincubated for 3 mins by Michaelis-Menten equation in presence of NADPH for 10 mins. The class given is ADME.

The test system of data set [4] is Liver microsome. The data set can be described thus: Drug metabolism in rat liver microsomes assessed as N-((4-(4-fluorophenyl)-2-oxochroman-7-yl)methyl)-2-((S)-2-hydroxy-2-(trifluoromethyl)butanoyl)hydrazinecarboxamide formation by Michaelis-Menten equation in presence of 1 mM NADPH for 10 mins. The class given is ADME.
The target of data set [5] is T2, Cytochrome P450 3A1. The data set can be described thus: Activity of rat recombinant CYP3A1 expressed in baculovirus-infected insect cells assessed as enzyme-mediated N-((4-(4-fluorophenyl)-2-oxochroman-7-yl)methyl)-2-((S)-2-hydroxy-2-(trifluoromethyl)butanoyl)hydrazinecarboxamide formation at 10 uM preincubated for 3 mins measured after 30 mins in presence of 1 mM NADPH. It counts as ADME. The note with it: 0.5 h.

Data set [6] deals with T1, Cytochrome P450 1A2. The data set can be described thus: Activity of rat recombinant CYP1A2 expressed in baculovirus-infected insect cells assessed as enzyme-mediated N-((4-(4-fluorophenyl)-2-oxochroman-7-yl)methyl)-2-((S)-2-hydroxy-2-(trifluoromethyl)butanoyl)hydrazinecarboxamide formation at 10 uM preincubated for 3 mins measured after 30 mins in presence of 1 mM NADPH. The class given is ADME. The note with it: 0.5 h.

The target of data set [7] is T3, Cytochrome P450 3A2 (Rattus norvegicus, UniProt P05183).
T3 sequence (P05183 whole entry): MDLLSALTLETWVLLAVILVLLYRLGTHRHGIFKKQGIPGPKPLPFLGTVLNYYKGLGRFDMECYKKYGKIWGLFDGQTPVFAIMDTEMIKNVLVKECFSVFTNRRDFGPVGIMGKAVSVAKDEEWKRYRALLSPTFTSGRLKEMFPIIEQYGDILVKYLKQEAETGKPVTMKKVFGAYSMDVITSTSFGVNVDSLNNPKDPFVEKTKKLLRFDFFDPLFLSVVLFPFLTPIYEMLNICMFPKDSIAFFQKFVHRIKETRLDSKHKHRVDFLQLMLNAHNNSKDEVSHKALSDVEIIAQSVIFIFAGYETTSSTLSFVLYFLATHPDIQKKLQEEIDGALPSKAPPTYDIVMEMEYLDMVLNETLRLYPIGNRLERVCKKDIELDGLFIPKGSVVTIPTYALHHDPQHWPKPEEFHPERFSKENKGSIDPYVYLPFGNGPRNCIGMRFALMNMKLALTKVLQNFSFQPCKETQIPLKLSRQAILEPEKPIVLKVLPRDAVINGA
The data set can be described thus: Activity of rat recombinant CYP3A2 expressed in baculovirus-infected insect cells assessed as enzyme-mediated N-((4-(4-fluorophenyl)-2-oxochroman-7-yl)methyl)-2-((S)-2-hydroxy-2-(trifluoromethyl)butanoyl)hydrazinecarboxamide formation at 10 uM preincubated for 3 mins measured after 30 mins in presence of 1 mM NADPH. The class given is ADME. The conditions noted are these: 0.5 h.

The nature of data set [8]: Drug metabolism in rat urine assessed as N-((4-(4-fluorophenyl)-2-oxochroman-7-yl)methyl)-2-((S)-2-hydroxy-2-(trifluoromethyl)butanoyl)hydrazinecarboxamide level. The class given is ADME, tissue-based.
For data set [9], the target named is T4, Cytochrome P450 1A1 (Rattus norvegicus, UniProt P00185).
T4 sequence (P00185 whole entry): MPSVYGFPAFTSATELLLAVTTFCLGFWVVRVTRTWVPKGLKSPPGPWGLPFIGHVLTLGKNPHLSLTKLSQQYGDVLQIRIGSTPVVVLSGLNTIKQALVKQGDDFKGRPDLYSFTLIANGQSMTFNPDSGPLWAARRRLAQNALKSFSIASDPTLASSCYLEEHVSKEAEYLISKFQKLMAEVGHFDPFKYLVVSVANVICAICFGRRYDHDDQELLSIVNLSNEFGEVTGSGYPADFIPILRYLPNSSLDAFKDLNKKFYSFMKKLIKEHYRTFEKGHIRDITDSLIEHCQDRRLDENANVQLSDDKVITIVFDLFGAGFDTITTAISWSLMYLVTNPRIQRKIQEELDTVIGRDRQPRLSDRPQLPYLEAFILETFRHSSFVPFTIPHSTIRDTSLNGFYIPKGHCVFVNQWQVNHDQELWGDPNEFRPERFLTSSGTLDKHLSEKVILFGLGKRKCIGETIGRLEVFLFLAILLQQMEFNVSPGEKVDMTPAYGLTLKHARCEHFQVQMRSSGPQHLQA
The data set can be described thus: Activity of rat recombinant CYP1A1 expressed in baculovirus-infected insect cells assessed as enzyme-mediated N-((4-(4-fluorophenyl)-2-oxochroman-7-yl)methyl)-2-((S)-2-hydroxy-2-(trifluoromethyl)butanoyl)hydrazinecarboxamide formation at 10 uM preincubated for 3 mins measured after 30 mins in presence of 1 mM NADPH. The conditions noted are these: 0.5 h. It counts as ADME.

Data set [10] in a line: Drug level in rat urine treated with setileuton. It counts as ADME, tissue-based. The conditions noted are these: in vivo.
The target in data set [11] is T1, Cytochrome P450 1A2. The data set can be described thus: Activity of CYP1A2 in rat liver microsomes assessed as enzyme mediated compound formation treated with 10 uM setileuton after 8 mins in absence of NADPH (reference value: 1.93 +/- 0.40 nM). It counts as ADME.
For data set [12], the target named is T4, Cytochrome P450 1A1. The data set can be described thus: Activity of rat recombinant CYP1A1 expressed in baculovirus-infected insect cells assessed as enzyme-mediated compound formation treated with setileuton at 10 uM preincubated for 3 mins measured after 30 mins in presence of 1 mM NADPH. The note with it: 0.5 h. It counts as ADME.
Data set [13] deals with T2, Cytochrome P450 3A1. The data set can be described thus: Activity of rat recombinant CYP3A1 expressed in baculovirus-infected insect cells assessed as enzyme-mediated compound formation treated with setileuton at 10 uM preincubated for 3 mins measured after 30 mins in presence of 1 mM NADPH. It counts as ADME. The conditions noted are these: 0.5 h.
Data set [14] has as its target T3, Cytochrome P450 3A2. The data set can be described thus: Activity of rat recombinant CYP3A2 expressed in baculovirus-infected insect cells assessed as enzyme-mediated compound formation treated with setileuton at 10 uM preincubated for 3 mins measured after 30 mins in presence of 1 mM NADPH. The class given is ADME. The note with it: 0.5 h.
Data set [15] deals with T1, Cytochrome P450 1A2. The data set can be described thus: Activity of CYP1A2 in rat liver microsomes assessed as enzyme mediated compound formation treated with 10 uM setileuton after 2 mins in absence of NADPH (reference value: 1.93 +/- 0.40 nM). It counts as ADME.
Data set [16] concerns the target T1, Cytochrome P450 1A2. The data set can be described thus: Activity of CYP1A2 in rat liver microsomes assessed as enzyme mediated compound formation treated with 10 uM setileuton after 2 mins in presence of NADPH (reference value: 8.10 +/- 2.26 nM). It counts as ADME.
The target in data set [17] is T1, Cytochrome P450 1A2. The data set can be described thus: Activity of CYP1A2 in rat liver microsomes assessed as enzyme mediated compound formation treated with 10 uM setileuton after 8 mins in presence of NADPH (reference value: 8.10 +/- 2.26 nM). It counts as ADME.
Data set [18] deals with T1, Cytochrome P450 1A2. The data set can be described thus: Activity of CYP1A2 in rat liver microsomes assessed as enzyme mediated compound formation treated with 10 uM setileuton after 10 mins in absence of NADPH (reference value: 1.93 +/- 0.40 nM). It counts as ADME.
The target in data set [19] is T1, Cytochrome P450 1A2. The data set can be described thus: Activity of CYP1A2 in rat liver microsomes assessed as enzyme mediated compound formation treated with 10 uM setileuton after 5 mins in absence of NADPH (reference value: 1.93 +/- 0.40 nM). It counts as ADME.
Data set [20] concerns Liver microsome. The data set can be described thus: Drug level in NADPH fortified rat liver microsomes treated with setileuton. The class given is ADME.
Data set [21] concerns the target T1, Cytochrome P450 1A2. The data set can be described thus: Activity of rat recombinant CYP1A2 expressed in baculovirus-infected insect cells assessed as enzyme-mediated compound formation treated with setileuton at 10 uM preincubated for 3 mins measured after 30 mins in presence of 1 mM NADPH. It counts as ADME. The note with it: 0.5 h.
Data set [22] has as its target T1, Cytochrome P450 1A2. The data set can be described thus: Activity of CYP1A2 in rat liver microsomes assessed as enzyme mediated compound formation treated with 10 uM setileuton after 5 mins in presence of NADPH (reference value: 8.10 +/- 2.26 nM). It counts as ADME.
The target in data set [23] is T1, Cytochrome P450 1A2. The data set can be described thus: Activity of CYP1A2 in rat liver microsomes assessed as enzyme mediated compound formation treated with 10 uM setileuton after 10 mins in presence of NADPH (reference value: 8.10 +/- 2.26 nM). The class given is ADME.

On to `CC[C@](O)(c1nnc(NCc2ccc3c(-c4ccc(F)cc4)cc(=O)oc3c2)o1)C(F)(F)F` [SETILEUTON], for which the Drug metabolism result in data set [1], in [5], in data set [6], in data set [7], in [8] and in data set [9] was “metabolite_detected” throughout. Also, the values for the S50 in data set [2], in data set [3] and in data set [4] were 8.2 µM, 8.2 µM and 10.6 µM, respectively.
Turning to `CC[C@](O)(C(=O)NNC(=O)NCc1ccc2c(-c3ccc(F)cc3)cc(=O)oc2c1)C(F)(F)F`, the Drug metabolism result is given as “metabolite_detected” in data set [10]; 1.43 nM in data set [11]; “metabolite_detected” in data set [12]; “metabolite_detected” in [13]; “metabolite_detected” in [14]; 1.81 nM in [15]. Besides, the Drug metabolism in data set [16] is given as 29.74 nM; in data set [17], 74.89 nM; in [18], 1.56 nM; in [19], 1.66 nM; in data set [20], “metabolite_detected”; in data set [21], “metabolite_detected”. Also, the Drug metabolism turned out to be 57.93 nM in data set [22] and 100.4 nM in data set [23].
